Patent publication US20220195379A1, “METHOD OF TESTTING INHIBITORY EFFECT OF CARBON DIOXIDE ON SPOILAGE CAUSING ABILITY OF SHEWANELLA PUTREFACIENS” (Shanghai Ocean University, priority 2022, published 2022)

Test system: Shewanella putrefaciens
Experiment: Inhibitory effect of CO2 on growth and spoilage causing ability, inoculated fillets in modified atmosphere packaging
Conditions: stored in the presence of CO2, versus control group
Protocol: Pre-frozen Shewanella putrefaciens (stored at −80° C. or less) was thawed at 30±2° C., inoculated to 5-10 mL of TSB, and cultured under shaking for 12 h to obtain a primary culture solution.
The primary culture solution was inoculated into another TSB liquid medium at an inoculation amount of 1% by weight, which was cultured under shaking for 6 h to obtain a bacterial suspension with a concentration of 10^7 CFU/mL.
A large yellow croaker with a weight of 1000±50 g was processed, and cut into a plurality of 100-g slices, which were washed with 0-4° C. water, and dried to prepare a plurality of samples. The large yellow croaker was oxygenated in a foam box during the transportation, and processed by bloodletting, evisceration, and head removal.
The samples were immersed into a 75% ethanol solution for 30 s, washed with sterile distilled water 3 times, and subjected to ultraviolet sterilization for 20 min to obtain a plurality of sterilized samples, where a mass ratio of the ethanol solution to the samples was 3:1. The bacterial suspension was diluted to a concentration of 10^4 CFU/mL, and inoculated to the sterilized samples to obtain a plurality inoculated samples, where the diluted bacterial suspension was 10% by weight of each sterilized sample such that a bacterial concentration of each sterilized sample was lower than or equal to 10^5 CFU/mL. […]

O=C=O [CO2, carbon dioxide]
Growth and reproduction rate of the Shewanella putrefaciens: significantly lower than that of the control group
